Measurements: patent US20180064714A1 (Mylan Laboratories Ltd, priority 2015, published 2018)

What was measured:
[1] = cited from earlier work
[2] = Physical and chemical stability on storage, analysed by PXRD for polymorph integrity; assay type: physicochemical
Description: The Cu-anode X-ray tube was operated at 40 kV and 30 mA. The experiments were conducted over the 2θ range of 2.0°-50.0°, 0.030° step size and 0.4 seconds step time.
The Cu-anode X-ray tube was operated at 40 kV and 30 mA. The experiments were conducted over the […] of 2.0°-50.0°, 0.030° step size and 0.4 seconds step time.
As used herein, a compound or pharmaceutical composition is considered “stable” where the HPLC purity of the compound or premix changes by less than about 1% when stored at 5° C.±3° C. and/or at 25° C./60% relative humidity (RH). In certain embodiments, the “stable” compound or premix is stored at 5° C.±3° C. In other embodiments, the “stable” compound or premix is stored at 25° C./60% relative humidity (RH).

Row | Initial PXRD analysis ([2]; at 5° C. ± 3° C.) | Initial PXRD analysis ([2]; at 25° C./60% RH) | Initial PXRD analysis ([2]; at 40° C./75% RH) | Structure (SMILES) | Solubility in water [1]
1 |  |  |  | CC[C@H](Nc1ncnc2[nH]cnc12)c1nc2cccc(F)c2c(=O)n1-c1ccccc1 [Idelalisib, 5-fluoro-3-phenyl-2-[(1S)-1-(7H-purin-6-ylamino)propyl]-4(3H)-quinazolinone] | poorly soluble
2 | Amorphous | Amorphous | Amorphous | CC[C@H](Nc1ncnc2nc[nH]c12)c1nc2cccc(F)c2c(=O)n1-c1ccccc1 [Amorphous Idelalisib, 5-fluoro-3-phenyl-2-[(1S)-1-(7H-purin-6-ylamino)propyl]-4(3H)-quinazolinone] | 
